# Reference: patent US7994326B2 (Northwestern University, priority 2003, dated 2011)
# Where two headings read alike, the source gives them in different places.
# Legend:
# Assay type in all cases: biochemical
# murine iNOS = target: T1, murine iNOS (Mus musculus, UniProt P29477); assay: NOS enzyme inhibitory assay (hemoglobin capture), iNOS; settings: for IC50: murine iNOS, 10 μM L-arginine
# T1 construct: made in house; host or cells: E. coli (plasmid pCWiNOS)
# From the text: (§1) All of the NOS isoforms used were recombinant enzymes overexpressed in E. coli from different sources. Nitric oxide formation from NOS was monitored by the hemoglobin capture assay as described in the literature.
# Enzyme inhibitory assay. All of the NOS isoforms used are recombinant enzymes overexpressed in E. coli from different sources.
# iNOS expression: An overnight culture of pCWiNOS was used to inoculate (1:100) larger cultures of Terrific Broth media (12 g/L tryptone, 24 g/L yeast extract, 4 mL/L glycerol, 17 mM KH2PO4, and 72 mM K2HPO4) containing 50 μg/mL ampicillin and 34 μg/mL chloramphenicol at 37° C. At an OD600 of ˜0.5, the culture was cooled to 25° C. and induced by the addition of 1 mM IPTG (final concentration). After approximately 24 h of growth at 25° C., the cells were pelleted at 5300×g, transferred to 50 mL conical tubes, and stored at −80° C.
# iNOS purification: Cell pellets from 1.0 L of culture were resuspended in sonication buffer (50 mM Hepes, pH 7.4, 10% glycerol, 10 μg/mL benzamidine, 5 μg/mL leupeptin, 0.2 mM of PMSF, and 1 μg/mL each of pepstatin, chymostatin, and antipain) and lysed by sonication. Centrifugation for 20 min at 13000×g yielded supernatant which contained iNOS active enzyme. iNOS supernatant was loaded onto 1 g of a 2′,5′-ADP-Sepharose 4B resin column. The column was then washed with 20 ml iNOS purification buffer (10 mM K2HPO4, 10% glycerol, 0.5 mM L-arginine, pH 7.4) and 10 μM BH4. Inducible NOS was eluted with 30 ml iNOS purification buffer supplemented with 10 mM 2′(3′)-AMP, 10 μM BH4, and 0.3 M NaCl. The eluent was concentrated to 5 ml by ultrafiltration. The above concentration operation was repeated three times more with 10 ml Hepes buffer supplemented with 10 μM BH4, to give purified inducible NOS.
# (§2) Nitric oxide formation from NOS was monitored by the hemoglobin capture assay as described previously. (Hevel, J. M.; Marletta, M. A. Nitric Oxide Synthase Assays. Methods Enzymol. 1994, […], 250-258).
# (§3) The selectivity of an inhibitor is defined as the ratio of the respective Ki values.
# rat nNOS = target: T2, rat nNOS (Rattus norvegicus, UniProt P29476); assay: NOS enzyme inhibitory assay (hemoglobin capture), nNOS; settings: for IC50: rat nNOS, 10 μM L-arginine
# T2 construct: made in house; host or cells: E. coli (plasmid pCWnNOS)
# Protocol: as §1
# After approximately 48 h of post-induction incubation in the dark at 25° C. the cells were pelleted at 5300×g, transferred to 50 mL conical tubes, and stored at −80° C.
# nNOS purification: Cell pellets from 2.0 L of culture were resuspended in sonication Buffer A (50 mM Tris Base Buffer, pH 8.0, 10% glycerol), 2 mg/ml lysozyme. 0.5 mM L-arginine. 1 mM EDTA, 0.1 mM PMSF, 1 µg/ml antipain, and 1 μM each of leupeptin, […], and […]) and lysed by sonication. Centrifugation for 1 h at 100000×g yielded supernatant which contained nNOS active enzyme. The supernatant was brought to 2 mM CaCl2 and the protein was loaded onto a 15 ml calmodulin-Sepharose column equilibrated with Buffer A containing 2 mM CaCl2. The column was washed with 100 ml Buffer B (50 mM Hepes, 5 mM DTT, and […]) containing 2 mM CaCl2, 0.5 mM L-arginine, and 10 μM BH4, and eluted with 30 ml Buffer B supplemented with 0.3 M NaCl, 5 mM EGTA, 0.5 mM L-arginine, and 10 μM BH4. The protein was then loaded onto a 5 ml 2′,5′-ADP-Sepharose column equilibrated with Buffer B supplemented with 0.3 M NaCl, 0.5 mM L-arginine, and 10 μM BH4. The column was washed with 25 ml Buffer B containing 0.5 mM L-arginine and 10 μM BH4, and then 25 ml of Buffer B only supplemented with 10 μM BH4 (without L-arginine). Neuronal NOS was eluted with 20 ml Buffer B supplemented with 10 mM 2′(3′)-AMP, 10 μM BH4 and 0.3 M NaCl. The 20 ml eluent was then concentrated to 5 ml by ultrafiltration. The above concentration operation was repeated twice more with 10 ml Buffer B supplemented with 10 µM BH4 to give the purified neuronal NOS.
# Nitric oxide formation from NOS was monitored by the hemoglobin capture assay as described previously.
# as §3
# bovine eNOS = target: T3, bovine eNOS (Bos taurus, UniProt P29473); assay: NOS enzyme inhibitory assay (hemoglobin capture), eNOS; settings: for IC50: bovine eNOS, 10 μM L-arginine, * = no inhibition observed up to the concentration listed
# T3 construct: made in house; host or cells: E. coli (plasmid Bov-eNOSpCW)
# Protocol: as §1
# Expression of bovine eNOS: An overnight culture of Bov-eNOSpCW was used to inoculate 0.5 liter (in a 2.8-liter Fernbach flask) of modified TB (20 g of yeast extract, 10 g of bacto-tryptone, 2.65 g of KH2PO4, 4.33 g of Na2HPO4 and 4 ml of glycerol per liter) containing ampicillin ([…]) and chloramphenicol ([…]). The cultures were grown to an OD600 of z0.8 at 22° C. (200 rpm) and induced with 0.5 mM IPTG. One hour before IPTG induction, d-aminolevulinic acid (0.5 mM final) was added and, at the time of IPTG induction, riboflavin ([…]) and ATP (1 mM final) were also added. After induction, the flasks were kept in the dark at 22° C. (200 rpm). The cells were harvested 48 h after induction, and the cell pellet was frozen at −80° C. until purification was carried out.
# Purification of bovine eNOS. The purification was typically carried out with eNOS from 2 liters of E. coli culture. The eNOS protein was purified using a modification of the published protocol for nNOS (14). The cells were resuspended in buffer C [50 mM Tris-Cl, pH 7.8, 1 mM EDTA, 1 mM DTT, 10% glycerol (v/v), 150 mM NaCl, 0.1 mM phenylmethylsulfonyl fluoride, […]], lysed by pulsed sonication and then centrifuged to sediment the cell debris. The supernatant was applied to a 2′,5′-ADP Sepharose 4B column equilibrated in buffer D [50 mM Tris-Cl, pH 7.8, 0.1 mM EDTA, 0.1 mM dithiothreitol, 150 mM NaCl, 10% glycerol (v/v)]. The column was washed with 20 column volumes of buffer B and again with 20 column volumes of buffer B containing 600 mM NaCl. Finally, protein was eluted with buffer B containing 600 mM NaCl and 5 mM 2′-AMP. The fractions were screened for absorption in the Soret region (A400) and hemoprotein-containing fractions were pooled and concentrated (Centriprep 50, Amicon). Repeated dilution/concentration [50 mM Tris-Cl, pH 7.8, 0.1 mM EDTA, 0.1 mM dithiothreitol, 10% glycerol (vol/vol)] was used to reach a final concentration of 150 mM NaCl and commensurately reduce the 2′-AMP content. […] The purified eNOS is stored in the presence of 1 mM L-arginine.
# eNOS washing: eNOS contains a significant amount of L-arginine, which will interfere with the enzyme assay. The L-arginine can be removed by several dilution and concentration steps using an Amico concentrator. The dilution buffer is 10 ml Tris-HCl 50 mM containing 0.1 mM EDTA, 400 mM NaCl, 10% glycerol and 1 mM beta-mercaptoethanol. The above dilution and concentration operation was repeated three times to give purified eNOS.
# as §2, §3
# [1] = Table 1a, apparent Ki calculated from IC50, Km […], read-out: calc. Ki iNOS
# [2] = Table 1a, apparent Ki calculated from IC50, Km […], read-out: calc. Ki nNOS
# [3] = Table 1a, apparent Ki calculated from IC50, Km 1.7 μM, read-out: calc. Ki eNOS
# [4] = Table 1b, ratio of Ki values eNOS/nNOS
# [5] = Table 1b, ratio of Ki values iNOS/nNOS
Structure (SMILES),Ki (murine iNOS; [1]),IC50 (murine iNOS; Table 1a),"Selectivity n/e (rat nNOS; Table 1a, Ki(eNOS)/Ki(nNOS))","Selectivity n/i (rat nNOS; Table 1a, Ki(iNOS)/Ki(nNOS))",Ki (rat nNOS; [2]),IC50 (rat nNOS; Table 1a),Ki (bovine eNOS; [3]),IC50 (bovine eNOS; Table 1a),"Ki (murine iNOS; Table 1b, read-out: Ki iNOS)",Selectivity n/e (rat nNOS; [4]),Selectivity n/i (rat nNOS; [5]),"Ki (rat nNOS; Table 1b, read-out: Ki nNOS)","Ki (bovine eNOS; Table 1b, read-out: Ki eNOS)"
Nc1cccc(CC2CNCC2NCC(N)Cc2ccccc2)n1 (racemic) [Compound P-32],297 µM,655 µM,>632,129.09,2.3 µM,20 µM,> 1450 µM,> 10000 µM,,,,,
Nc1cccc(CC2CNCC2NC2CCN(Cc3ccccc3)C2)n1 (centres unmarked) [Compound P-38],425 µM,937 µM,66.19,155.05,2.74 µM,23.8 µM,181 µM,1250 µM,,,,,
Nc1cccc(CC2CNCC2NCC(N)Cc2ccccc2)n1 (racemic) [Compound P-31],238 µM,524 µM,>600,98.27,2.42 µM,21 µM,> 1450 µM,> 10000 µM,,,,,
Cl.Cl.Cl.Cl.Nc1nc(CC2CNCC2NCCNCc2ccc(Cl)cc2)cs1 (racemic) [Compound P-82],,,,,,,,,3.4 µM,1.8,2,1.7 µM,3 µM
Nc1cccc(CC2CNCC2NC2CCNC2)n1 (racemic) [Compound P-20],234 µM,516 µM,48.67,18.21,12.8 µM,112 µM,625 µM,4300 µM,,,,,
Cc1cc(N)nc(CC2CNCC2NCCNCc2ccc(Cl)c(Cl)c2)c1.Cl.Cl.Cl.Cl (racemic) [Compound P-60],,,,,,,,,3.56 µM,260,22.6,0.157 µM,40.8 µM
Cc1cc(N)nc(C[C@H]2CNC[C@@H]2N(C)CCNCc2ccc(Cl)cc2)c1 (racemic) [Compound P-69],,,,,,,,,,,,,58.1 µM
Cc1cc(N)nc(CC2CNCC2NCCNCc2ccc(C(F)(F)F)cc2)c1.Cl.Cl.Cl.Cl (racemic) [Compound P-56],,,,,,,,,,,,,61.2 µM
